Reference: patent US20250290915A1, “METHOD FOR PREDICTING RESPONSIVENESS TO THERAPY” (CANCERTAIN LIMITED, priority 2022, published 2025)

Tested on: cancer cells derived from the tissue sample of a patient with osteosarcoma
Test: Drug response score assay on tissue sample, Example 10
Assay type: cell-based, human
Set-up: key to Drug response score, conc. 1 / Drug response score, conc. 2 / Drug response score, conc. 3 / Drug response score, conc. 4: normalized drug response metric per Gupta et al. 2020
Details: for effectiveness on the cancer cells derived from the tissue sample under laboratory conditions / Drug sensitivity as calculated by the assay (interpretation of Drug Response Scores): osteosarcoma tissue sample; for Drug sensitivity as calculated by the assay (interpretation of Drug Response Scores): Table 33; for Drug response score, conc. 1 / Drug response score, conc. 2 / Drug response score, conc. 3 / Drug response score, conc. 4: tissue sample; for Drug response score, conc. 1: conc. 1 per Table 31: Etop 1, DTIC 1.5, Ifos 0.125, Doce 0.02, Irinotecan 5 μg/ml; for Drug response score, conc. 2: conc. 2 per Table 31: Etop 4, DTIC 3, Ifos 0.25, Doce 0.2, Irinotecan 10 μg/ml; for Drug response score, conc. 3: conc. 3 per Table 31: Etop 20, DTIC 6, Ifos 5, Doce 2, Irinotecan 25 μg/ml; for Drug response score, conc. 4: conc. 4 per Table 31: Etop 100, DTIC 12, Ifos 10, Doce 10, Irinotecan 50 μg/ml
Procedure: Where a tissue sample was provided by each subject, cancer stem cells (CSCs, CD133^+), were isolated from said sample. Tumour marker cells were further isolated from each tissue sample. The remaining cells were designated tumour marker^+ cells.
First, disaggregation of the tissue samples was carried out. Disaggregation was dependent on the size of the tissue sample and the method of retrieval: • EBUS (Endobronchial Ultrasound Scan and Biopsy)—very small fragments of tissue in solution-spun at 1200 rpm for 5 minutes to collect tissue pellet • Bronchoscopy-larger fragments with larger amount of blood vessels • Broncho-lavage-similar to EBUS, spun at 1200 rpm for 5 minutes to collet tissue pellet
Once a pellet of tissue obtained, DMEM added to the tissue pellet and the material forced through a […] Smart strainer. Once a cell suspension was achieved, this was spun at 1200 rpm for 5 minutes and the supernatant removed. The cells were then resuspended to a volume of 60 μl.
20 μl of FcR block and 20 μl of CD133 microbeads were added to the resuspended cells, followed by incubation for 15 minutes at 4° C. The cells were then processed using an AutoMACS machine. This separates the […] into CD133^+ and CD133^− cells in 2 separate falcons. The falcon tubes are then centrifuged at 1200 rpm for 5 minutes.
The supernatant was removed from the CD133+falcon tube, and the cells resuspended in DMEM with 2 μl Cell Tox, 2 μl MT and 2 μl MT. 20 μl of the resuspended […] was then plated in each well which will contain an immunotherapy treatment.
The supernatant was removed from the CD133^− falcon tube, and the CD133^− cells contacted with 40 μl of a tumour separation microbeads cocktail containing microbeads bound to anti-CD31, anti-CD45, anti-Glycophorin-A (Gly-A) and an anti-fibroblast antibody.
This cocktail is used to separate out tumour marker cells using MACS, by separating out CD31^+, CD45^+ and Gly-A^+ cells. In addition, anti-fibroblast antibody-labelled beads are also used. The cocktail is added to the CD133^− falcon tube, followed by incubation for 15 minutes at 4° C. MACS is carried out using an AutoMACS machine. This cells which are not bound by the CD31, CD45, Gly-A and anti-fibroblast antibody beads are the tumour marker^+ cells.
The different cell types were each divided equally into populations, depending on the number of drugs/concentrations to be tested and plated on a cell-culture plate pre-coated with a scaffold of polycaprolactone (PCL) electrospun fibres and incubated at 37° C., 5% CO2, for 5 to (typically 10) minutes to facilitate cell attachment. After attachment, an initial imaging step was carried out using the RealTime-Glo™ MT assay from Promega (Catalogue No. G9711)) and the CellTox™ Green Cytotoxicity Assay (Promega, Catalogue No. G8741), carried out according to manufacturer's instructions. Following this initial imagining, the immunotherapeutic and/or chemotherapeutic agents were added to the cell populations as indicated below. After 10 minutes, the imagining step was repeated. The cell populations were then incubated at 37° C., 5% CO2 for 48 hours. The imaging step was then repeated. The cell populations were then re-dosed with the same immunotherapeutic and/or chemotherapeutic agents as indicated below, and incubated at 37° C., 5% CO2 for a further 48 hours. After this second 48 hour incubation, the imagining step was repeated for a final time.
At the end of this culture period, dose response scores were calculated using a normalized drug response metric as described in Gupta et al. (Communications Biology volume 3, Article number: 42 (2020), https://doi.org/10.1038/s42003-020-0765-z). The start readout for a given immunotherapeutic or chemotherapeutic agent at a given concentration was the to readout for said immunotherapeutic or chemotherapeutic agent at a specified concentration. […]

Row | Structure (SMILES) | effectiveness on the cancer cells derived from the tissue sample under laboratory conditions | Drug sensitivity as calculated by the assay (interpretation of Drug Response Scores) | Drug response score, conc. 1 | Drug response score, conc. 2 | Drug response score, conc. 3 | Drug response score, conc. 4
1 | CC(=O)O[C@@]12CO[C@@H]1C[C@H](O)[C@@]1(C)C(=O)[C@H](O)C3=C(C)[C@@H](OC(=O)[C@H](O)[C@@H](NC(=O)OC(C)(C)C)c4ccccc4)C[C@@](O)([C@@H](OC(=O)c4ccccc4)[C@H]21)C3(C)C [Docetaxel] | resistant | Resistant | −0.5113 | 1.0268 | 0.6693 | −0.6056
2 | COc1cc([C@@H]2c3cc4c(cc3[C@@H](O[C@@H]3O[C@@H]5CO[C@@H](C)O[C@H]5[C@H](O)[C@H]3O)[C@H]3COC(=O)[C@H]23)OCO4)cc(OC)c1O [Etoposide] | show effectiveness | Sensitive (S+) | 0.4829 | 0.0653 | −0.4472 | 0.0955
3 | O=P1(NCCCl)OCCCN1CCCl (stereo not drawn) [Ifosfamide] | show effectiveness | Sensitive (S+) | 0.3183 | 0.8776 | 0.1237 | −0.8671
